Test results taken from patent US9505834B2, “Methods for controlling the galactosylation profile of recombinantly-expressed proteins” (AbbVie Inc., priority 2011, dated 2016).

Legend:
[1] = system: CHO cell line producing mAb #1; test: Example 7 culture growth & productivity; type: cell-based, Chinese Hamster
Description: (§1) For all studies with CHO cell lines described throughout this invention, samples were collected daily and measured for cell density and viability using a Cedex cell counter. Retention samples for titer analysis via Poros A method were collected by centrifugation at 12,000 RPM for 5 min when the culture viability began declining. The cultures were harvested by collecting 125 mL aliquots and centrifuging at 3,000 RPM for 30 min when culture viability was near or below 50%. All supernatants were stored at −80° C. until analysis.
Growth and production media for the CHO cell line producing mAb #1 were prepared using a proprietary Life Technologies Gibco chemically defined media, GIA-1. […] All media were filtered through Corning 0.5 L or 1 L filter systems (0.22 μm PES) and stored at 4° C. until use.
Upon thaw, cells were expanded for 6 (3 day each) passages in a combination of 250 mL, 500 mL, and 1000 mL Corning vented non-baffled shake flasks. Production cultures were initiated in duplicate 500 mL Corning vented non-baffled shake flasks (200 mL working volume) at an initial VCD of approximately 0.5×10^6 cells/mL. Cultures were maintained on orbital shakers at 125 RPM in a dry incubator at 35° C. and 5% CO2. A glucose solution (1.25% (v/v) of 40% solution) was fed when the media glucose concentration fell below 3 g/L. […]

[2] = system: adalimumab-producing CHO cell line; test: Example 1 oligosaccharide analysis, batch shake flasks, CDM GIA-1; type: cell-based, Chinese Hamster
Description: The studies were performed in either a batch process in shake flasks or a fed-batch process in 3 L bioreactors.
Growth and production media for the adalimumab-producing CHO cell line were prepared using a proprietary Life Technologies Gibco chemically defined media, GIA-1. […] All media were filtered through Corning 0.5 L or 1 L filter systems 0.22 μm Poly(Ether Sulfone) (PES) and stored at 4° C. until use.
The cell line utilized for both studies was generated from the adalimumab-producing CHO cell utilized in Example 3 by adapting it to chemically defined GIA-1 media for 7 (2 to 3 day each) passages in a combination of 250 mL and 500 mL Corning vented non-baffled shake flasks before freezing.
Upon thaw, for the batch shake flask study, cells were expanded for 3 to 5 (2 to 3 day each) passages in a combination of 250 mL and 500 mL Corning vented non-baffled shake flasks. Production cultures were initiated in duplicate 500 mL Corning vented non-baffled shake flasks (200 mL working volume) at an initial viable cell density (VCD) of approximately 0.5×10^6 cells/mL. Cultures were maintained on orbital shakers at 110 revolutions per minute (RPM) in a dry incubator at 35° C. and 5% CO2. The shake flask study was run in an extended batch mode by feeding a glucose solution (1.25% (v/v) of 40% solution) when the media glucose concentration fell below 3 g/L.
as §1
(§2) For all studies, the harvest samples were Protein A purified and prepared for the oligosaccharide assay using the following procedures. As a first step in the process of establishing the identity and quantifying the oligosaccharides, they are released from the protein by enzymatic digestion with N-glycanase. Once the glycans are released, the free reducing end of each glycan is labeled by reductive amination with a fluorescent tag, 2-aminobenzamide (2-AB). The resulting labeled glycans are separated by normal-phase HPLC (NP-HPLC) in acetonitrile: 50 mM ammonium formate, pH 4.4, and detected by a fluorescence detector. Quantitation is based on the relative area percent of detected sugars. Throughout this invention, the relative area percentages of the agalactosyl fucosylated biantennary oligosaccharides, denoted as NGA2F+NGA2F-GlcNAc sum, and the galactose-containing fucosylated biantennary oligosaccharides NA1F+NA2F sum are reported and discussed.
Galactose was supplemented at the following levels in production media: 0, 10, 20, 40, and 100 mM. […] Culture growth, productivity, and product quality data for control cultures is the average of the 3 experiments.

[3] = system: adalimumab-producing CHO cell line #3; test: Example 5 oligosaccharide analysis, CDM GIA-1, fed-batch 3 L bioreactors; type: cell-based, Chinese Hamster
Description: as §1, §2
Growth and production media for the adalimumab-producing CHO cell line #3 were prepared using the proprietary Life Technologies Gibco chemically defined media, GIA-1.
Upon thaw, cells were expanded in Corning vented non-baffled shake flasks maintained on orbital shakers at 140 RPM, and in 10 L cell bags (2 L working volume) maintained at 25 RPM, 7° angle, and 0.25 SLPM airflow in a dry incubator at 36° C. and 5% CO2. Production cultures were initiated in 3 L bioreactors (1.4 L initial working volume) at 36° C., 30% dissolved oxygen, 200 RPM, and pH 6.9±0.2. A fixed split ratio of cells to media of 1:6.7 was utilized to initiate the production stage cultures. A temperature shift was performed when the culture VCD reached a value higher than 5×10^6 cells/mL. The chemically-defined feed from Life Technologies Gibco JCL-5 was added as follows: 4% (v/v)—day 2, 6%—day 4, 8%—day 6, 10%—day 8, and 10%—day 10. […] Bioreactors were harvested at a viability of approximately 50% or on production day 17, whichever condition occurred first.
Galactose was supplemented at 0 and 30 mM concentrations in both production and feed media.

[4] = system: adalimumab-producing NSO cell line; test: Example 6 oligosaccharide analysis, CDM PFBM-3/PFFM-4, fed-batch shake flasks; type: cell-based
Description: as §2
Growth and production media for the adalimumab-producing NSO cell line were prepared using a proprietary Life Technologies Gibco chemically defined media, PFBM-3 basal medium plus PFFM-4 feed medium.
Upon thaw, cells were expanded for 3 to 5 (2 days each) passages in a combination of 250 mL, 500 mL, 1 L, 2 L and 3 L Corning vented non-baffled shake flasks. Production cultures were initiated in single 1 L Corning vented non-baffled shake flasks (240 mL initial working volume) at an initial VCD of approximately 2.5×10^5 cells/mL. Cultures were maintained on orbital shakers at 100 RPM in a dry incubator at 37° C. and 5% CO2. The shake flask study was run in a fed-batch mode and the culture was fed PFFM-4 as follows: 24 mL—day 2, 28.8 mL—day 4, 28.8 mL—day 6, and 28.8 mL—day 8.
Samples were collected every 2 days and measured for cell density and viability using a Cedex cell counter. Retention samples for titer analysis via Poros A method were collected daily beginning on Day 8 by centrifugation at 2,000 g for 10 min and then filtered through 0.2 μm PVDF syringe filter. The cultures were harvested on production day 10. The entire culture was collected, chilled on ice to approximately 0° C. for 1.5 hours, the cells and debris flocculated at pH 5.0 by the addition of 1M citric acid and held for 15 minutes, and centrifuged at 4000x g for 15 min at 5° C. The supernatant was passed through 0.20 μm Millipore Stericup PES filters, and, immediately post filtration, the acidified clarified cell-free harvest was neutralized with 2M Tris to pH 7.1±0.2. The cell free harvest was transferred to PETG bottles and stored at −80° C. until analysis.
Galactose was supplemented at the following levels in both production and feed media: 0, 1, 4, 5, and 10 mM.

[5] = 100 μM manganese chloride alone
[6] = 0.2 μM manganese chloride alone
[7] = 0.5 μM manganese chloride alone

| Compound | culture growth ([1]; manganese chloride alone 0 to 20 μM) | decrease in the NGA2F+NGA2F-GlcNac sum ([2]; 40 μM manganese chloride alone) | maximum change in the NA1F+NA2F oligosaccharides [2, 5] | maximum change in the NGA2F+NGA2F-GlcNac [2, 5] | decrease in the NGA2F+NGA2F-GlcNac sum [3, 6] | increase in the NA1F+NA2F sum [3, 6] | increase in the NA1F+NA2F oligosaccharides ([3]; 1 μM manganese chloride alone) | maximum decrease in the NGA2F+NGA2F-GlcNac ([3]; 1 μM manganese chloride alone) | decrease in the NGA2F+NGA2F-GlcNac sum [4, 6] | increase in the NA1F+NA2F sum [4, 7] | maximum decrease in the NGA2F+NGA2F-GlcNac sum [4, 7] | culture growth ([1]; galactose alone) | decrease in the NGA2F+NGA2F-GlcNac sum ([2]; 40 mM galactose alone) | maximum change in the NA1F+NA2F oligosaccharides ([2]; 100 mM galactose alone) | maximum change in the NGA2F+NGA2F-GlcNac ([2]; 100 mM galactose alone) | decrease in the NGA2F+NGA2F-GlcNac sum ([3]; 30 mM galactose alone) | increase in the NA1F+NA2F sum ([3]; 30 mM galactose alone) | decrease in the NGA2F+NGA2F-GlcNac sum ([4]; 4 mM galactose alone) | increase in the NA1F+NA2F sum ([4]; 10 mM galactose alone) | maximum decrease in the NGA2F+NGA2F-GlcNac sum ([4]; 10 mM galactose alone) |
| --- | --- | --- | --- | --- | --- | --- | --- | --- | --- | --- | --- | --- | --- | --- | --- | --- | --- | --- | --- | --- |
| Manganese (II) Chloride [manganese chloride] | grew comparable to the control cultures | 6% | 8% | 9% | 15% | 16% | 28% | 26% | 12% | 20% | 18% |  |  |  |  |  |  |  |  |  |
| O=C[C@H](O)[C@@H](O)[C@@H](O)[C@H](O)CO [galactose, D(+)Galactose] |  |  |  |  |  |  |  |  |  |  |  | grew to a lower maximum VCD compared to the control | 6% | 7% | 7% | 4% | 3% | 2% | 15% | 14% |
